The results in this text go back to US20240124439A1, “Pyrido[2,3-D]Imidazole Derivatives and Their Use As Inhibitors of ITK for the Treatment of Skin Disease” (Pfizer Inc., priority 2020, published 2024).

Test [1] has as its target Tropomyosin Receptor Kinase A (TRKA), NTRK1 enzyme (Homo sapiens (Human), UniProt P04629). Put plainly: TRKA (NTRK1) ThermoFisher Z'-LYTE enzyme assay. Format: biochemical. As to conditions: test compound 1 uM, ATP 1 mM; arithmetic mean of count n. How it is done: TRKA, also known as neurotrophic tyrosine kinase receptor type 1 (NTKR1) activity was determined by measuring the effect of a test compound on the activity against the NTRK1 enzyme using the ThermoFisher Z′-LYTE Assay fluorescence-based coupled enzyme format (www.thermofisher.com/selectscreen). Test compounds were screened at a fixed concentration of 1 uM and the % inhibition was determined compared to controls at a fixed ATP concentration of 1 mM. The resulting effect value for the tested compound was compared to the assay controls to determine the % inhibition (%).

The subject of test [2] is activated CD4+ human T-cells (IL-2). Description: IL-2 inhibition in supernatants from activated CD4+ human T-cells (cisbio HTRF). As to conditions: T-cell; CD3/CD28-activated CD4+ human T cells, ImmunoCult stimulation 20 to 24 hrs; geometric mean of count n. Format: cell-based. The method, boiled down: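 Primary human CD4+ T cells activated with CD3/CD28 for 3 days and expanded to 7-9 days total, plated at 30,000 cells/well. Cells preincubated 15 min with compound, then stimulated with ImmunoCult (1:50 final) for 20-24 h at 37° C. Supernatant IL-2 measured by HTRF (665/615 nm); IC50 from four-parameter logistic fit.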

In test [3] the target is IL-2-Inducible T-Cell Kinase (ITK) (Homo sapiens (Human), UniProt Q08881). Description: ITK enzyme assay (IL-2-inducible T-cell kinase activity). Format: biochemical. As to conditions: geometric mean of count n. The essentials:
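Full-length N-Flag/C-His human ITK, pre-incubated 30 min at RT with compound. Reaction in HEPES pH 7.5 buffer with MgCl2, glutathione, gelatin and Brij-35, started with BTK peptide substrate, 60 min at RT. EDTA stop, PT66/APC TR-FRET detection overnight; IC50 fitted by four-parameter logistic.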

In general, inhibition refers to the change of the read-out against control, counted positive when it falls. Broadly, the IC50 is the concentration that gives 50% inhibition. Lower therefore signals inhibition by little substance.

Chain of Tropomyosin Receptor Kinase A (TRKA), NTRK1 enzyme (P04629 33-796): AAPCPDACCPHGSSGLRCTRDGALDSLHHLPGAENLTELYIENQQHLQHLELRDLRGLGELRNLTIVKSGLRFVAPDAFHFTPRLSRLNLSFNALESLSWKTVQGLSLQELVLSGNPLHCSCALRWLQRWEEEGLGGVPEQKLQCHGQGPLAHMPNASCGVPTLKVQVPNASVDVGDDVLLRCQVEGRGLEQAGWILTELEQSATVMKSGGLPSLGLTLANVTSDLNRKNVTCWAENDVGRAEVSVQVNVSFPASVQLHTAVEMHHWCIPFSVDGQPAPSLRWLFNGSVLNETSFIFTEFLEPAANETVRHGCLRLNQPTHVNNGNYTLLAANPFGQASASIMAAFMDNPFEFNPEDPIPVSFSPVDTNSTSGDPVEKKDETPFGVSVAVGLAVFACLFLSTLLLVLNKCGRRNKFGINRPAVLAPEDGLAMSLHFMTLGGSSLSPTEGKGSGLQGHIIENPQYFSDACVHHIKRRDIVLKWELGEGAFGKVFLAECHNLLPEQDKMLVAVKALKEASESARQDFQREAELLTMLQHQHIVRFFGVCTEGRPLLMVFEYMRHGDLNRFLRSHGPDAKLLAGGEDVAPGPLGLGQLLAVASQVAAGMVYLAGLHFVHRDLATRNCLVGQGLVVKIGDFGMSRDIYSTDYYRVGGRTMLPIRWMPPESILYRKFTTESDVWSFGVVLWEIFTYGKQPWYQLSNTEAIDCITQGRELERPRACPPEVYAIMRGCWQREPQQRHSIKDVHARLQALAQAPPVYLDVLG
Chain of IL-2-Inducible T-Cell Kinase (ITK) (Q08881 whole entry): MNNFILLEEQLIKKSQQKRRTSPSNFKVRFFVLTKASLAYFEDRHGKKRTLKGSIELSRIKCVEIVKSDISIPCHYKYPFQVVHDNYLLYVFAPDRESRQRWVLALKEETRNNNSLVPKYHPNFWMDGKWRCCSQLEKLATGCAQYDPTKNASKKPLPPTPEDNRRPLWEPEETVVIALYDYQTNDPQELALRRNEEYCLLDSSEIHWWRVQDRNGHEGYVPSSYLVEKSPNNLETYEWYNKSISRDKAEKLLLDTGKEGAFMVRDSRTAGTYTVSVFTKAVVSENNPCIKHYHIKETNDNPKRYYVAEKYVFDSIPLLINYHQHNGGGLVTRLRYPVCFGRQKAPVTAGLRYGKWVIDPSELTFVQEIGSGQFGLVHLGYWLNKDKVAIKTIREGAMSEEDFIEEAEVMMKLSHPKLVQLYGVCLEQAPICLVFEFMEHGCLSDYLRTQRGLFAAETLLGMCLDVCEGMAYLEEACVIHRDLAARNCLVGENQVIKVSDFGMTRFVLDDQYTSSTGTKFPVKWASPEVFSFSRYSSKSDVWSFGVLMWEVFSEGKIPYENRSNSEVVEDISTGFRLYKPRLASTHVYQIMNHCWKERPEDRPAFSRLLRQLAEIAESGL

For `C[C@@H](C(=O)N(CCO)c1cnc2[nH]c(-c3n[nH]c4c3C[C@@H]3C[C@]3(C)C4)nc2c1)C1CCOCC1` [Example 31, (R)-N-(2-Hydroxyethyl)-N-(2-((4aS,5aR)-5a-methyl-1,4,4a,5,5a,6-hexahydrocyclopropa[f]indazol-3-yl)-3H-imidazo[4,5-b]pyridin-6-yl)-2-(tetrahydro-2H-pyran-4-yl)propenamide], the inhibition at 1 µM in test [1] came out at 95%. Moreover, the half-maximal inhibitory concentration (IC50) in test [2] amounted to 415 nM; in test [3], 25 nM.
For `COCCOc1nc2[nH]c(-c3n[nH]c4c3C[C@@H]3C[C@]3(C)C4)nc2cc1N(C)C(=O)[C@H](C)N1CCOCC1` [Example 40, (S)-N-(5-(2-Methoxyethoxy)-2-((4aS,5aR)-5a-methyl-1,4,4a,5,5a,6-hexahydrocyclopropa[f]indazol-3-yl)-3H-imidazo[4,5-b]pyridin-6-yl)-N-methyl-2-morpholinopropanamide], in that order: 97%, 182 nM and 28 nM.
For `C[C@@H](C(=O)N(C)c1cnc2[nH]c(-c3n[nH]c4c3C[C@H]3C(F)(F)[C@@]3(C)C4)nc2c1)N1CCOCC1` [Example 24, (S)-N-(2-((4aR,5aS)-5,5-Difluoro-5a-methyl-1,4,4a,5,5a,6-hexahydrocyclopropa[f]indazol-3-yl)-3H-imidazo[4,5-b]pyridin-6-yl)-N-methyl-2-morpholinopropanamide], in that order: 95%, 34 nM and 3 nM.
Take `CN(C(=O)CCC(C)(F)F)c1cnc2[nH]c(-c3n[nH]c4c3CCC(C)(C)C4)nc2c1` [Example 97, N-(2-(6,6-Dimethyl-4,5,6,7-tetrahydro-1H-indazol-3-yl)-3H-imidazo[4,5-b]pyridin-6-yl)-4,4-difluoro-N-methylpentanamide]: the inhibition at 1 µM in test [1] was 92%. Moreover, the IC50 in test [2] worked out at 287 nM; in test [3] it was 56 nM.
For `C[C@@H](C(=O)N(C)c1cc2[nH]c(-c3n[nH]c4c3C[C@@H]3C[C@]3(C)C4)nc2nc1F)N1CCOCC1` [Example 17, (S)-N-(5-Fluoro-2-((4aS,5aR)-5a-methyl-1,4,4a,5,5a,6-hexahydrocyclopropa[f]indazol-3-yl)-1H-imidazo[4,5-b]pyridin-6-yl)-N-methyl-2-morpholinopropanamide] the same measures were 96%, 307 nM and 41 nM.
For `CC(=O)N(C)CC(=O)N(C)c1cnc2nc(-c3n[nH]c4c3C[C@@H]3C[C@]3(C)C4)[nH]c2c1` [Example 80, N-Methyl-N-(2-((4aS,5aR)-5a-methyl-1,4,4a,5,5a,6-hexahydrocyclopropa[f]indazol-3-yl)-1H-imidazo[4,5-b]pyridin-6-yl)-2-(N-methylacetamido)acetamide], in that order: 96%, 1250 nM and 54 nM.
For `C[C@@H](C(=O)N(C)c1cnc2[nH]c(-c3n[nH]c4c3C[C@@H]3C[C@]3(C)C4)nc2c1)N1CCOCC1` [Example 28, (S)-N-Methyl-N-(2-((4aS,5aR)-5a-methyl-1,4,4a,5,5a,6-hexahydrocyclopropa[f]indazol-3-yl)-3H-imidazo[4,5-b]pyridin-6-yl)-2-morpholinopropanamide] the same measures were 91%, 121 nM and 23 nM.
For `CN(C(=O)C(F)(F)C1CCOCC1)c1cnc2[nH]c(-c3n[nH]c4c3C[C@@H]3C[C@]3(C)C4)nc2c1` [Example 2, 2,2-Difluoro-N-methyl-N-(2-((4aS,5aR)-5a-methyl-1,4,4a,5,5a,6-hexahydrocyclopropa[f]indazol-3-yl)-3H-imidazo[4,5-b]pyridin-6-yl)-2-(tetrahydro-2H-pyran-4-yl)acetamide], the inhibition at 1 µM in test [1] came to 108%. In addition, the IC50 in test [2] was 92 nM; in test [3], 14 nM.
Regarding `CN(C(=O)CN1CCCOC1=O)c1cnc2nc(-c3n[nH]c4c3C[C@@H]3C[C@]3(C)C4)[nH]c2c1` [Example 57, N-Methyl-N-(2-((4aS,5aR)-5a-methyl-1,4,4a,5,5a,6-hexahydrocyclopropa[f]indazol-3-yl)-1H-imidazo[4,5-b]pyridin-6-yl)-2-(2-oxo-1,3-oxazinan-3-yl)acetamide], in test [1], the inhibition at 1 µM was determined as 106%. Besides, the figures for the IC50 in test [2] and in test [3] were 974 nM and 36 nM, respectively.
As to `C[C@@H](C(=O)N(C)c1cnc2[nH]c(-c3n[nH]c4c3CCC(C)(C)C4)nc2c1)C1CCOCC1` [Example 32, (R)-N-(2-(6,6-Dimethyl-4,5,6,7-tetrahydro-1H-indazol-3-yl)-3H-imidazo[4,5-b]pyridin-6-yl)-N-methyl-2-(tetrahydro-2H-pyran-4-yl)propenamide], the inhibition at 1 µM in test [1] turned out to be 94%. The results for the IC50 in test [2] and in test [3] were 167 nM and 17 nM, respectively.
With `CN(C(=O)C1(F)CCC1)c1cnc2[nH]c(-c3n[nH]c4c3CCC(C)(C)C4)nc2c1` [Example 95, N-(2-(6,6-Dimethyl-4,5,6,7-tetrahydro-1H-indazol-3-yl)-3H-imidazo[4,5-b]pyridin-6-yl)-1-fluoro-N-methylcyclobutane-1-carboxamide], the inhibition at 1 µM in test [1] is 93%. Besides, the IC50 in test [2] came out at 266 nM; in test [3], 64 nM.
As for `CN(C(=O)C1(F)CCOCC1)c1cnc2nc(-c3n[nH]c4c3C[C@@H]3C[C@]3(C)C4)[nH]c2c1` [Example 61, 4-Fluoro-N-methyl-N-(2-((4aS,5aR)-5a-methyl-1,4,4a,5,5a,6-hexahydrocyclopropa[f]indazol-3-yl)-1H-imidazo[4,5-b]pyridin-6-yl)tetrahydro-2H-pyran-4-carboxamide], the inhibition at 1 µM in test [1] was determined as 95%. Moreover, the half-inhibitory concentration (IC50) in test [2] turned out to be 88 nM; in test [3], 23 nM.
As to `CN(C(=O)C(C)(C)C)c1cnc2nc(-c3n[nH]c4c3C[C@@H]3C[C@]3(C)C4)[nH]c2c1` [Example 86, N-Methyl-N-(2-((4aS,5aR)-5a-methyl-1,4,4a,5,5a,6-hexahydrocyclopropa[f]indazol-3-yl)-1H-imidazo[4,5-b]pyridin-6-yl)pivalamide], in test [1], the inhibition at 1 µM is 95%. Besides, the IC50 in test [2] is 466 nM; in test [3], 100 nM.
For `CN(c1cnc2nc(-c3n[nH]c4c3C[C@@H]3C[C@]3(C)C4)[nH]c2c1)C(=O)[C@H]1C[C@H](C)C1` [Example 84, (1r,3S)-N,3-Dimethyl-N-(2-((4aS,5aR)-5a-methyl-1,4,4a,5,5a,6-hexahydrocyclopropa[f]indazol-3-yl)-1H-imidazo[4,5-b]pyridin-6-yl)cyclobutane-1-carboxamide] the same measures were 96%, 288 nM and 31 nM.
In the case of `CCN(C(=O)[C@H](C)C1CCOCC1)c1cnc2[nH]c(-c3n[nH]c4c3CCC(C)(C)C4)nc2c1` [Example 18], the inhibition at 1 µM in test [1] was 97%. For the same molecule, the IC50 in test [2] turned out to be 162 nM.
For the molecule `C[C@H](C(=O)N(C)c1cnc2[nH]c(-c3n[nH]c4c3C[C@@H]3C[C@]3(C)C4)nc2c1)N1CCOCC1` [Example 26, (R)-N-Methyl-N-(2-((4aS,5aR)-5a-methyl-1,4,4a,5,5a,6-hexahydrocyclopropa[f]indazol-3-yl)-3H-imidazo[4,5-b]pyridin-6-yl)-2-morpholinopropanamide], the inhibition at 1 µM in test [1] came to 91%. For the same molecule, in test [2], half-maximal inhibition (IC50) was put at 631 nM.
As to `C[C@@H](C(=O)N(C)c1cnc2[nH]c(-c3n[nH]c4c3CCC(C)(C)C4)nc2c1)N1CCOCC1` [Example 14, (S)-N-(2-(6,6-Dimethyl-4,5,6,7-tetrahydro-1H-indazol-3-yl)-3H-imidazo[4,5-b]pyridin-6-yl)-N-methyl-2-morpholinopropanamide], the inhibition at 1 µM in test [1] was 92%. This molecule also gave an IC50 in test [2] of 157 nM.
`CN(C(=O)C(C)(C)C1CCOCC1)c1cnc2nc(-c3n[nH]c4c3CC3C[C@]3(C)C4)[nH]c2c1` (stereo partly drawn) [Example 60, N,2-Dimethyl-N-(2-((4aS,5aR)-5a-methyl-1,4,4a,5,5a,6-hexahydrocyclopropa[f]indazol-3-yl)-1H-imidazo[4,5-b]pyridin-6-yl)-2-(tetrahydro-2H-pyran-4-yl)propenamide]: the results for the IC50 in test [2] and in test [3] were 182 nM and 63 nM, respectively.
As for `CC(C)[C@@H](C(=O)N(C)c1cnc2[nH]c(-c3n[nH]c4c3CC3C[C@]3(C)C4)nc2c1)N1CCOCC1` (stereo in doubt) [Example 3, (S)-N,3-Dimethyl-N-(2-((4aR,5aR)-5a-methyl-1,4,4a,5,5a,6-hexahydrocyclopropa[f]indazol-3-yl)-3H-imidazo[4,5-b]pyridin-6-yl)-2-morpholinobutanamide], the IC50 in test [2] came out at 320 nM; in test [3] it was 38 nM.
With `CN(C(=O)C12CC(F)(C1)C2)c1cnc2nc(-c3n[nH]c4c3C[C@@H]3C[C@]3(C)C4)[nH]c2c1` [Example 59], the figures for the IC50 in test [2] and in test [3] were 370 nM and 109 nM, respectively.
For `CCCC(=O)N(C)c1cnc2nc(-c3n[nH]c4c3C[C@@H]3C[C@]3(C)C4)[nH]c2c1` [Example 71, N-Methyl-N-(2-((4aS,5aR)-5a-methyl-1,4,4a,5,5a,6-hexahydrocyclopropa[f]indazol-3-yl)-1H-imidazo[4,5-b]pyridin-6-yl)butyramide], in that order: 313 nM and 42 nM.
